Target: T1, novel organic cation transporter 1 (hOCTN1) (Homo sapiens, UniProt Q9H015)
T1 construct: gene SLC22A4
T1 sequence (Q9H015 1-551): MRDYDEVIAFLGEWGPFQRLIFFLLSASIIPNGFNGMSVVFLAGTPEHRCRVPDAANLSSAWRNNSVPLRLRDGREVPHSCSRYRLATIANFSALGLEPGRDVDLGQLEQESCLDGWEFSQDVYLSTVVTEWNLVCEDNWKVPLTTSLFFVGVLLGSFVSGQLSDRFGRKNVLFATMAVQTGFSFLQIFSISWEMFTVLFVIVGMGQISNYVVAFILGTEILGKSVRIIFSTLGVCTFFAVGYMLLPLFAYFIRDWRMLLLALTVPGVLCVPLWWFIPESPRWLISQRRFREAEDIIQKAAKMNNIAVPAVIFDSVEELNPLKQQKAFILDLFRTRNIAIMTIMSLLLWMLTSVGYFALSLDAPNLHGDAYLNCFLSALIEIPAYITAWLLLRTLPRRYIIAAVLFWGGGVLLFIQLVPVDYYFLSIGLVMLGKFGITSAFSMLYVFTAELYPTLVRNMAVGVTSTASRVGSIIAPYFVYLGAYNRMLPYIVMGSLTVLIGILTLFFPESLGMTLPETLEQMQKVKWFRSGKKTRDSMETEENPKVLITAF
Test: ASP+ uptake in HEK293 cells with doxycycline-induced versus uninduced hOCTN1
Format: cell-based
Text: ASP+ uptake in HEK293 cells with doxycycline-induced versus uninduced hOCTN1 on novel organic cation transporter 1 (hOCTN1) | ASP^+ is a substrate for hOCTN1. Comparison of ASP^+ uptake by HEK293 cells stably transfected

CN(C)c1ccc(C=Cc2cc[n+](C)cc2)cc1 [ASP+, 4-(4-(Dimethylamino)Styryl)-N-methylpyridinium]
ASP+ uptake in HEK293 cells with doxycycline-induced versus uninduced hOCTN1: ASP^+ is a substrate for hOCTN1. Comparison of ASP^+ uptake by HEK293 cells stably transfected

Source: article PMC3527388, “Transport Mechanisms and Their Pathology-Induced Regulation Govern Tyrosine Kinase Inhibitor Delivery in Rheumatoid Arthritis” (PLoS ONE, 2012)
